From patent US20240181068A1, “SELECTIVE NEUTRAL PH INHIBITOR OF CATHEPSIN B” (The Regents of the University of California, priority 2021, published 2024)

Assays:
Format in all cases: biochemical
cathepsin B = target: T1, cathepsin B (Homo sapiens, UniProt P07858); test: Cathepsin B inhibitor kinetic characterization, fluorogenic assay with Z-Phe-Arg-AMC; settings: for reduction of cathepsin B activity: 64 nM inhibitor; for kinact/KI / Ki / IC50: cathepsin B
T1 construct: purchased R&D Systems 953-CY-010
Method: Inhibitor kinetic characterization using fluorogenic assays for cathepsin B activity. Kinetic analyses of IC50, K1, kobs, and kinact/K1 values for Z-Arg-Lys-AOMK and Z-Glu-Lys-AOMK inhibition of cathepsin B were conducted by fluorogenic proteolytic assays consisting of 40 μM Z-Phe-Arg-AMC, 40 mM citrate phosphate at pH 7.2 or pH 4.6, 1 mM EDTA, 100 mM NaCl, 5 mM DTT, and 0.01% Tween 20; assays were performed at room temperature (22-27° C.) in quadruplicate. Inhibitor and substrate were combined in the reaction well, and the assay was started upon addition of cathepsin B (0.04 ng/μL). The inhibitor concentration ranged from 5.5 μM to 1.1 nM (1.5-fold serial dilution). A vehicle control assay contained 2% DMSO instead of inhibitor. Enzyme velocity (RFU/sec) was measured during a […] incubation period as relative fluorescent units per sec (RFU/s), calculated using the highest slope recorded for 10 consecutive readings taken at 46 sec intervals (thus, activity is calculated over a total of 460 sec). Prism software was used to analyze enzyme activity data in kinetic studies. IC50 values were calculated (without preincubation of inhibitor and enzyme) as the concentration of inhibitor that reduced cathepsin B activity by 50%.
For determination of K1 and kinact/K1 kinetic inhibition constants, kobs constants were determined by plots of cathepsin B activity in time courses with different inhibitor concentrations by curve fitting slope data of RFU versus time into Y=Y0*e^(−kobs*^X), where Y0 is the activity for the control with no inhibitor condition, Y is the activity in the presence of inhibitor, X is time. K1 and kinact values were calculated from curve fitting the kobs values into the equation kobs=kinact*[I]/(K1+[I]), where [I] is inhibitor concentration, and K1 is the x-axis inhibitor concentration where y=kinact/2 and kinact is the maximum rate of inactivation at saturating inhibitor concentrations (93, 94). These kinetic analyses are for irreversible inhibitors, Z-Arg-Lys-AOMK and Z-Glu-Lys-AOMK of this study, that utilize Ki values, rather than Ki values used for reversible inhibitors (93).

cathepsin C = target: T2, cathepsin C (Homo sapiens, UniProt P53634); test: Specificity of inhibitors: cathepsin C (Gly-Arg-AMC substrate)
T2 construct: purchased R&D Systems 1071-CY-010
Method: (§1) Specificity of inhibitors for other cysteine cathepsin proteases. The effects of Z-Arg-Lys-AOMK and Z-Glu-Lys-AOMK on cathepsin V, L, K, S, X, H and C activities were assessed. IC50 values were calculated at pH 4.6 and pH 7.2 conditions, consisting of 40 mM citrate phosphate, 1 mM EDTA, 100 mM NaCl, and 5 mM DTT. The inhibitor concentrations ranged from 16.38 μM to 256 nM with 2-fold serial dilutions. […] Cathepsin V (0.04 ng/μL), cathepsin L (0.03 ng/μL), cathepsin K (0.10 ng/μL), cathepsin S (0.20 ng/uL) were assayed with 40 μM Z-Phe-Arg-AMC. Cathepsin X (0.20 ng/uL), cathepsin C (0.51 ng/uL) and cathepsin H (0.1 ng/μL) were assayed with 40 μM of MCA-Arg-Pro-Pro-Gly-Phe-Ser-Ala-Phe-Lys(Dnp)OH (SEQ ID NO: 2), Gly-Arg-AMC, and Arg-AMC, respectively. Activation of pro-cathepsin H to cathepsin H was conducted by incubation of cathepsin H (4.4 ng/μL) with cathepsin L (1.1 ng/μL) at RT for 2 hrs in activation buffer (20 mM citrate phosphate pH 6.0, 100 mM NaCl, and 5 mM DTT). Cathepsin C (13.78 ng/μL) was activated by incubation with cathepsin L (3.4 ng/μL) at RT for one hr in activation buffer (20 mM citrate phosphate, pH 6.0, 100 mM NaCl, 5 mM DTT). […] For all assays containing peptide-AMC substrates the fluorescent microplate reader settings were the same as outlined above for cathepsin B. For the cathepsin X assay, the plate reader was set to excitation 320 nm, emission 400 nm, gain 105, top optics and read height 1 mm. To convert RFU/s to picomol/min, 10 μM to 0.005 μM (2-fold serial dilution) of MCA-Arg-Pro-Pro-Gly-Phe-Ser-Ala-Phe-Lys(Dnp)OH (SEQ ID NO: 2) was fully hydrolyzed with excess cathepsin X and a standard curve was generated using the total fluorescence values calculated at each concentration.

cathepsin V = target: T3, cathepsin V (Homo sapiens, UniProt O60911); test: Specificity of inhibitors: cathepsin V (Z-Phe-Arg-AMC substrate)
T3 construct: purchased R&D Systems 1080-CY-010
Method: as §1

[1] = target: T4, cathepsin B in SHSY5Y human neuroblastoma cell homogenate (Homo sapiens, UniProt P07858); test: Cathepsin B activity in neuroblastoma cell homogenates in presence of inhibitors; settings: inhibitor 1 μM, Z-Arg-Arg-AMC substrate, pH 5.5
T4 construct: endogenous in cells; host or cells: SH-SY5Y human neuroblastoma cells
Method: Cathepsin B in human neuroblastoma cells treated with inhibitors. Neuroblastoma cells (human SHSY5Y) were grown in media consisting of 50% MEMalpha, 50% F12-K, 10% heat-inactivated FBS at 37° C. in an atmosphere of 95% air and 5% CO2. Firstly, cell homogenates were prepared by collection of cells in 0.32 M sucrose and freeze-thawing. Secondly, cells were incubated with Z-Arg-Lys-AOMK or CA-074Me for 6 hours at 37° C., and washed 3 times in phosphate-buffered saline and homogenates were prepared in 0.32 M sucrose with freeze-thawing. CA-074Me is a methyl ester form of the active CA-074 selective inhibitor of cathepsin B (70); CA-074Me penetrates the cell and is converted by intracellular esterases to CA-074.
Cathepsin B activity in the homogenates were monitored with Z-Arg-Arg-AMC substrate (60 μM) with buffer conditions of 40 mM citrate-phosphate, pH 5.5, 5 mM DTT, 1 mM EDTA, 100 mM NaCl, and 1.2% DMSO, followed by incubation at 37° C. for 30 minutes and reading of AMC fluorescence. CA-074-senstive activity was monitored to indicate cathepsin B activity, since CA-074 is a selective inhibitor of this enzyme (70). Protein content was measured in homogenates with the DC protein assay kit. Cathepsin B specific activity was calculated as nmol AMC/μg/min, and reported as the mean±SD (with analyses for statistical significance, p<0.05 by student's t-test).

T3 sequence (O60911 114-334): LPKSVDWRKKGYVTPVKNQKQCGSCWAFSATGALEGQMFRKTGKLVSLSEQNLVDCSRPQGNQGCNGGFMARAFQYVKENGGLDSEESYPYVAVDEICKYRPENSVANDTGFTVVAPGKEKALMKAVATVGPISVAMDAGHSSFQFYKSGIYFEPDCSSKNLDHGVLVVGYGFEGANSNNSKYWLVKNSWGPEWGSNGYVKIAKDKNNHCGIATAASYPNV
T2 sequence (P53634 25-134 limits assumed): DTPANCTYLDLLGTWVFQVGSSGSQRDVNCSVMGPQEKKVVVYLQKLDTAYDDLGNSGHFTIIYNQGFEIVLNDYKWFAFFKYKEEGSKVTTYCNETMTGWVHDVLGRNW
T2 sequence (P53634 231-394 limits assumed): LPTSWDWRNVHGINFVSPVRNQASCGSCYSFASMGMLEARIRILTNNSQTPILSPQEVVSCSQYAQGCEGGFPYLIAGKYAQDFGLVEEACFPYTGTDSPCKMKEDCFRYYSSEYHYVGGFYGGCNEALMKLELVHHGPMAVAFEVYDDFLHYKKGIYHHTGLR
T2 sequence (P53634 395-463 limits assumed): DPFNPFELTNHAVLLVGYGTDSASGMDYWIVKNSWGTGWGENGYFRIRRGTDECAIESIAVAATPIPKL

reduction of cathepsin B activity (cathepsin B; pH 4.6, Z-Phe-Arg-AMC substrate): 5%
reduction of cathepsin B activity (cathepsin B; pH 7.2, Z-Phe-Arg-AMC substrate): 93%
kinact/KI (cathepsin B; pH 4.6): 1800 M⁻¹ s⁻¹
Ki (cathepsin B; pH 4.6, irreversible inhibitor): 15000 nM
IC50 (cathepsin B; pH 4.6, without preincubation): 1500 nM
IC50 (cathepsin B; pH 6.8 (data not shown)): 22 nM
kinact/KI (cathepsin B; pH 7.2): 110000 M⁻¹ s⁻¹
Ki (cathepsin B; pH 7.2, irreversible inhibitor): 130 nM
IC50 (cathepsin B; pH 7.2, without preincubation): 20 nM
IC50 (cathepsin C; cathepsin C, pH 4.6): > 16000 nM
inhibition at 16 µM (cathepsin C; cathepsin C, pH 4.6, 16,000 nM inhibitor): 6%
IC50 (cathepsin C; cathepsin C, pH 7.2): 850 nM
inhibition of cathepsin C (cathepsin C; pH 4.6, inhibitor at 16 μM): minimal inhibition
fold more potent for cathepsin B than cathepsin C (cathepsin C; pH 7.2, from IC50): 43 fold
IC50 (cathepsin V; cathepsin V, pH 4.6): > 16000 nM
inhibition at 16 µM (cathepsin V; cathepsin V, pH 4.6, 16,000 nM inhibitor): 63%
IC50 (cathepsin V; cathepsin V, pH 7.2): 440 nM
inhibition of cathepsin V (cathepsin V; pH 4.6, inhibitor at 16 μM): minimal inhibition
fold more potent for cathepsin B than cathepsin V (cathepsin V; pH 7.2, from IC50): 22 fold
inhibition of proteolytic (cathepsin B) activity in cell lysate [1]: completely inhibited
SMILES: Cc1cccc(C)c1C(=O)OCC(=O)C(CCCCN)NC(=O)C(CCCNC(=N)N)NC(=O)OCc1ccccc1 (stereo not drawn) [Z-Arg-Lys-AOMK]
